Results as given in patent US20020137929A1, “1 - (3-heterocyclylphenyl) isothiourea, -isourea, -guanidine and -amidine herbicidal agents” (Intellectual Property Department, BASF Aktiengesellschaft, priority 1998, published 2002).

Tests used:
[1] = test system: SETVI (Foxtail, Green); test: Preemergence herbicidal evaluation; type: in vivo, Setaria viridis; conditions: preemergence, rated 4-5 weeks after treatment, 0-9 scale
Procedure, shortened: (§1)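 Scores use a 0–9 visual scale covering stand, vigor, malformation, size and chlorosis relative to controls, rated four to five weeks after treatment. Before emergence, soil-planted seeds were sprayed with compound in aqueous acetone at roughly 0.0156–0.500 kg/ha and held in the greenhouse.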

[2] = test system: GALAP (Galium); test: Preemergence herbicidal evaluation; type: in vivo, Galium aparine; conditions: preemergence, rated 4-5 weeks after treatment, 0-9 scale
Procedure, shortened: as §1

[3] = test system: CHEAL (Lambsquarters, Common); test: Postemergence herbicidal evaluation; type: in vivo, Chenopodium album; conditions: postemergence
Procedure, shortened: (§2)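 Visual 0–9 rating versus control (stand, vigor, malformation, size, chlorosis, overall appearance), taken four to five weeks post-spray. Two-week-old seedlings received roughly 0.0156–0.500 kg/ha active in acetone/water (50/50) with 0.5% TWEEN 20 via nozzle at 40 psi.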

[4] = test system: SAGPY (Arrowhead (Pygmaea)); test: Postemergence weed control under flooded paddy conditions; type: in vivo, Sagittaria pygmaea; conditions: postemergence weeds, rated 3 to 4 weeks after treatment
Procedure, shortened: (§3)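 Herbicidal effect is judged by eye on a 0–9 scale versus control, 3–4 weeks after dosing. Dosing is into flood water kept 1.5–3 cm over the soil, at about 0.0313–0.500 kg/ha in aqueous/acetone 50/50 v/v, on 3–5 cm weeds and 1.5–2.5-leaf rice seedlings.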

[5] = test system: SETVI (Foxtail, Green); test: Postemergence herbicidal evaluation; type: in vivo, Setaria viridis; conditions: postemergence
Procedure, shortened: as §2

[6] = test system: TRZAWR (Wheat, Winter, cv Riband); test: Postemergence herbicidal evaluation; type: in vivo, Triticum aestivum; conditions: postemergence
Procedure, shortened: as §2

[7] = test system: ABUTH (Velvetleaf); test: Postemergence herbicidal evaluation; type: in vivo, Abutilon theophrasti; conditions: postemergence
Procedure, shortened: as §2

[8] = test system: CYPSE (Flatsedge); test: Postemergence weed control under flooded paddy conditions; type: in vivo, Cyperus serotinus; conditions: postemergence weeds, rated 3 to 4 weeks after treatment
Procedure, shortened: as §3

[9] = test system: GLXMAW (Soybean, Williams); test: Postemergence herbicidal evaluation; type: in vivo, Glycine max, (L.) Merr. cv Williams; conditions: postemergence
Procedure, shortened: as §2

[10] = test system: ECHORC (Watergrass (Calif.)); test: Postemergence weed control under flooded paddy conditions; type: in vivo, Echinochloa oryzoides; conditions: postemergence weeds, rated 3 to 4 weeks after treatment
Procedure, shortened: as §3

[11] = test system: ZEAMX (Corn, Field); test: Postemergence herbicidal evaluation; type: in vivo, Zea mays; conditions: postemergence
Procedure, shortened: as §2

[12] = test system: CYPIR (Rice Flatsedge); test: Preemergence weed control under flooded paddy conditions; type: in vivo, Cyperus iria; conditions: rated 3-4 weeks after treatment
Procedure, shortened: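 Ratings on a 0-9 visual scale cover stand, vigor, malformation, size, chlorosis and overall appearance relative to a control, taken three to four weeks post-treatment. Application was into flood water over freshly sown silt loam at roughly 0.0313 to 0.500 kg/ha.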

[13] = test system: AMBEL (Ragweed, Common); test: Preemergence herbicidal evaluation; type: in vivo, Ambrosia artemisifolia; conditions: preemergence, rated 4-5 weeks after treatment, 0-9 scale
Procedure, shortened: as §1

[14] = test system: ORYSAT (Rice, Tebonnet); test: Postemergence herbicidal evaluation; type: in vivo, Oryza sativa, (L.) Tebonnet; conditions: postemergence
Procedure, shortened: as §2

For `C=CCN1C(=O)C(CC(=O)OC(C)C(=O)OCC)SC1=Nc1cc(-n2c(=O)ccn(C)c2=O)c(F)cc1Cl` [Compound 94, 3-Allyl-2-{{2-chloro-5-[3,6-dihydro-3-methyl-2,6-dioxo-1(2H)-pyrimidinyl]-4-fluorophenyl}imino}-4-oxo-5-thiazolidineacetic acid, ester with ethyl lactate, (R,S)-], the SETVI rating ([1]; 0.0156 kg/ha) was 0.0, the SETVI rating ([1]; 0.0313 kg/ha) was 0.0 and the SETVI rating ([1]; 0.0625 kg/ha) was 0.0. It also gave an SETVI rating ([1]; 0.1250 kg/ha) of 4.0, an SETVI rating ([1]; 0.2500 kg/ha) of 9.0 and a GALAP rating ([2]; 0.0156 kg/ha) of 0.0. The GALAP rating ([2]; 0.0313 kg/ha) was 0.0, the GALAP rating ([2]; 0.0625 kg/ha) was 0.0 and the GALAP rating ([2]; 0.1250 kg/ha) was 3.0. For the same molecule, the GALAP rating ([2]; 0.2500 kg/ha) was 9.0, the CHEAL herbicidal rating ([3]; rate 0.0158 kg/ha) was 9.0 and the CHEAL herbicidal rating ([3]; rate 0.0315 kg/ha) was 9.0. The CHEAL herbicidal rating ([3]; rate 0.0630 kg/ha) was 9.0, the “Herbicidal rating SAGPY” value ([4]; Rate 0.0313 kg/ha) was 0.0 and the “Herbicidal rating SAGPY” value ([4]; Rate 0.0625 kg/ha) was 0.0. The “Herbicidal rating SAGPY” value ([4]; Rate 0.1250 kg/ha) was 5.0, the “Herbicidal rating SAGPY” value ([4]; Rate 0.2500 kg/ha) was 9.0 and the SETVI herbicidal rating ([5]; rate 0.0158 kg/ha) was 9.0. It also gave an SETVI herbicidal rating ([5]; rate 0.0315 kg/ha) of 9.0, an SETVI herbicidal rating ([5]; rate 0.0630 kg/ha) of 9.0 and a TRZAWR herbicidal rating ([6]; rate 0.0158 kg/ha) of 6.0. The TRZAWR herbicidal rating ([6]; rate 0.0315 kg/ha) was 9.0, the TRZAWR herbicidal rating ([6]; rate 0.0630 kg/ha) was 8.0 and the ABUTH herbicidal rating ([7]; rate 0.0158 kg/ha) was 9.0. For the same molecule, the ABUTH herbicidal rating ([7]; rate 0.0315 kg/ha) was 9.0, the ABUTH herbicidal rating ([7]; rate 0.0630 kg/ha) was 9.0 and the “Herbicidal rating CYPSE” value ([8]; Rate 0.1250 kg/ha) was 6.0. The “Herbicidal rating CYPSE” value ([8]; Rate 0.2500 kg/ha) was 9.0, the GLXMAW herbicidal rating ([9]; rate 0.0158 kg/ha) was 9.0 and the GLXMAW herbicidal rating ([9]; rate 0.0315 kg/ha) was 9.0. For the same molecule, the GLXMAW herbicidal rating ([9]; rate 0.0630 kg/ha) was 9.0, the “Herbicidal rating ECHORC” value ([10]; Rate 0.0313 kg/ha) was 0.0 and the “Herbicidal rating ECHORC” value ([10]; Rate 0.0625 kg/ha) was 0.0. The “Herbicidal rating ECHORC” value ([10]; Rate 0.1250 kg/ha) was 2.0, the “Herbicidal rating ECHORC” value ([10]; Rate 0.2500 kg/ha) was 7.0 and the ZEAMX herbicidal rating ([11]; rate 0.0158 kg/ha) was 8.5. For the same molecule, the ZEAMX herbicidal rating ([11]; rate 0.0315 kg/ha) was 8.5, the ZEAMX herbicidal rating ([11]; rate 0.0630 kg/ha) was 9.0 and the “CYPIR herbicidal effect rating” value ([12]; 0.0313 kg/ha) was 0.0. For the same molecule, the “CYPIR herbicidal effect rating” value ([12]; 0.0625 kg/ha) was 3.0, the “CYPIR herbicidal effect rating” value ([12]; 0.1250 kg/ha) was 4.0 and the “CYPIR herbicidal effect rating” value ([12]; 0.2500 kg/ha) was 4.0. The AMBEL rating ([13]; 0.0156 kg/ha) was 0.0, the AMBEL rating ([13]; 0.0313 kg/ha) was 0.0 and the AMBEL rating ([13]; 0.0625 kg/ha) was 4.0. For the same molecule, the AMBEL rating ([13]; 0.1250 kg/ha) was 9.0, the AMBEL rating ([13]; 0.2500 kg/ha) was 9.0 and the ORYSAT herbicidal rating ([14]; rate 0.0158 kg/ha) was 2.0. For the same molecule, the ORYSAT herbicidal rating ([14]; rate 0.0315 kg/ha) was 4.5 and the ORYSAT herbicidal rating ([14]; rate 0.0630 kg/ha) was 5.0.
In the case of `C=CCN1C(=O)C(CC(N)=O)SC1=Nc1cc(-n2c(=O)cc(C(F)(F)F)n(C)c2=O)c(F)cc1Cl` (centres unmarked) [Compound 99, 3-Allyl-2-{{2-chloro-5-[3,6-dihydro-3-methyl-2,6-dioxo-4-(trifluoromethyl)-1(2H)-pyrimidinyl]-4-fluorophenyl}imino}-4-oxo-5-thiazolidineacetamide], the SETVI rating ([1]; 0.0156 kg/ha) is reported as 0.0, the SETVI rating ([1]; 0.0313 kg/ha) is reported as 1.0 and the SETVI rating ([1]; 0.0625 kg/ha) is reported as 1.0. It also gave an SETVI rating ([1]; 0.1250 kg/ha) of 6.0, an SETVI rating ([1]; 0.2500 kg/ha) of 7.0 and an SETVI rating ([1]; 0.5000 kg/ha) of 9.0. It also gave a GALAP rating ([2]; 0.0156 kg/ha) of 0.0, a GALAP rating ([2]; 0.0313 kg/ha) of 0.0 and a GALAP rating ([2]; 0.0625 kg/ha) of 1.0. For the same molecule, the GALAP rating ([2]; 0.1250 kg/ha) was 7.0, the GALAP rating ([2]; 0.2500 kg/ha) was 9.0 and the GALAP rating ([2]; 0.5000 kg/ha) was 7.0. The “herbicidal rating CHEAL” value ([3]; rate 0.0156 kg/ha) was 7.0, the “herbicidal rating CHEAL” value ([3]; rate 0.0313 kg/ha) was 7.0 and the CHEAL herbicidal rating ([3]; rate 0.0625 kg/ha) was 9.0. The CHEAL herbicidal rating ([3]; rate 0.1250 kg/ha) was 9.0, the “Herbicidal rating SAGPY” value ([4]; Rate 0.0313 kg/ha) was 0.0 and the “Herbicidal rating SAGPY” value ([4]; Rate 0.0625 kg/ha) was 0.0. The “Herbicidal rating SAGPY” value ([4]; Rate 0.1250 kg/ha) was 3.0, the “Herbicidal rating SAGPY” value ([4]; Rate 0.2500 kg/ha) was 4.0 and the “Herbicidal rating SAGPY” value ([4]; Rate 0.5000 kg/ha) was 4.0. For the same molecule, the “herbicidal rating SETVI” value ([5]; rate 0.0156 kg/ha) was 6.0, the “herbicidal rating SETVI” value ([5]; rate 0.0313 kg/ha) was 7.0 and the SETVI herbicidal rating ([5]; rate 0.0625 kg/ha) was 9.0. The SETVI herbicidal rating ([5]; rate 0.1250 kg/ha) was 8.0, the “herbicidal rating TRZAWR” value ([6]; rate 0.0156 kg/ha) was 4.0 and the “herbicidal rating TRZAWR” value ([6]; rate 0.0313 kg/ha) was 4.5. The TRZAWR herbicidal rating ([6]; rate 0.0625 kg/ha) was 5.5, the TRZAWR herbicidal rating ([6]; rate 0.1250 kg/ha) was 6.5 and the “herbicidal rating ABUTH” value ([7]; rate 0.0156 kg/ha) was 9.0. For the same molecule, the “herbicidal rating ABUTH” value ([7]; rate 0.0313 kg/ha) was 9.0, the ABUTH herbicidal rating ([7]; rate 0.0625 kg/ha) was 9.0 and the ABUTH herbicidal rating ([7]; rate 0.1250 kg/ha) was 9.0. The “Herbicidal rating CYPSE” value ([8]; Rate 0.0313 kg/ha) was 0.0, the “Herbicidal rating CYPSE” value ([8]; Rate 0.0625 kg/ha) was 0.0 and the “Herbicidal rating CYPSE” value ([8]; Rate 0.1250 kg/ha) was 0.0. The “Herbicidal rating CYPSE” value ([8]; Rate 0.2500 kg/ha) was 0.0, the “Herbicidal rating CYPSE” value ([8]; Rate 0.5000 kg/ha) was 0.0 and the “herbicidal rating GLXMAW” value ([9]; rate 0.0156 kg/ha) was 6.5. The “herbicidal rating GLXMAW” value ([9]; rate 0.0313 kg/ha) was 7.5, the GLXMAW herbicidal rating ([9]; rate 0.0625 kg/ha) was 8.0 and the GLXMAW herbicidal rating ([9]; rate 0.1250 kg/ha) was 8.0. For the same molecule, the “Herbicidal rating ECHORC” value ([10]; Rate 0.0313 kg/ha) was 0.0, the “Herbicidal rating ECHORC” value ([10]; Rate 0.0625 kg/ha) was 0.0 and the “Herbicidal rating ECHORC” value ([10]; Rate 0.1250 kg/ha) was 0.0. For the same molecule, the “Herbicidal rating ECHORC” value ([10]; Rate 0.2500 kg/ha) was 0.0, the “Herbicidal rating ECHORC” value ([10]; Rate 0.5000 kg/ha) was 4.0 and the “herbicidal rating ZEAMX” value ([11]; rate 0.0156 kg/ha) was 5.0. For the same molecule, the “herbicidal rating ZEAMX” value ([11]; rate 0.0313 kg/ha) was 6.0, the ZEAMX herbicidal rating ([11]; rate 0.0625 kg/ha) was 7.5 and the ZEAMX herbicidal rating ([11]; rate 0.1250 kg/ha) was 8.0. The “CYPIR herbicidal effect rating” value ([12]; 0.0313 kg/ha) was 0.0, the “CYPIR herbicidal effect rating” value ([12]; 0.0625 kg/ha) was 0.0 and the “CYPIR herbicidal effect rating” value ([12]; 0.1250 kg/ha) was 0.0. For the same molecule, the “CYPIR herbicidal effect rating” value ([12]; 0.2500 kg/ha) was 0.0, the “CYPIR herbicidal effect rating” value ([12]; 0.5000 kg/ha) was 0.0 and the AMBEL rating ([13]; 0.0156 kg/ha) was 0.0. It also gave an AMBEL rating ([13]; 0.0313 kg/ha) of 0.0, an AMBEL rating ([13]; 0.0625 kg/ha) of 4.0 and an AMBEL rating ([13]; 0.1250 kg/ha) of 9.0. For the same molecule, the AMBEL rating ([13]; 0.2500 kg/ha) was 9.0, the AMBEL rating ([13]; 0.5000 kg/ha) was 9.0 and the “herbicidal rating ORYSAT” value ([14]; rate 0.0156 kg/ha) was 4.0. The “herbicidal rating ORYSAT” value ([14]; rate 0.0313 kg/ha) was 4.5, the ORYSAT herbicidal rating ([14]; rate 0.0625 kg/ha) was 5.5 and the ORYSAT herbicidal rating ([14]; rate 0.1250 kg/ha) was 6.5.
